Experimental data from patent US20140288040A1, “SUBSTITUTED BENZYLAMINE COMPOUNDS, THEIR USE IN MEDICINE, AND IN PARTICULAR THE TREATMENT OF HEPATITIS C VIRUS (HCV) INFECTION” (ASTEX THERAPEUTICS LIMITED, priority 2011, published 2014).
Read-outs that look alike come from different tables or passages of the source.

Experiments:
[1] = target: T1, HCV NS3 protease (full length NS34a) (Hepatitis C virus genotype 1b, UniProt P26663); assay: HCV NS3 protease assay (FRET, full length NS34a); type: biochemical; details: protease activity of full length NS34a, FRET peptide substrate; read-out: Activity IC50
T1 construct: The protease activity of the full length NS34a was measured using a FRET-based assay; made in house
T1 sequence (P26663 1658-1711): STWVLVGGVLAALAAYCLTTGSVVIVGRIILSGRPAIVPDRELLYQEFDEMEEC
T1 sequence (P26663 1027-1657): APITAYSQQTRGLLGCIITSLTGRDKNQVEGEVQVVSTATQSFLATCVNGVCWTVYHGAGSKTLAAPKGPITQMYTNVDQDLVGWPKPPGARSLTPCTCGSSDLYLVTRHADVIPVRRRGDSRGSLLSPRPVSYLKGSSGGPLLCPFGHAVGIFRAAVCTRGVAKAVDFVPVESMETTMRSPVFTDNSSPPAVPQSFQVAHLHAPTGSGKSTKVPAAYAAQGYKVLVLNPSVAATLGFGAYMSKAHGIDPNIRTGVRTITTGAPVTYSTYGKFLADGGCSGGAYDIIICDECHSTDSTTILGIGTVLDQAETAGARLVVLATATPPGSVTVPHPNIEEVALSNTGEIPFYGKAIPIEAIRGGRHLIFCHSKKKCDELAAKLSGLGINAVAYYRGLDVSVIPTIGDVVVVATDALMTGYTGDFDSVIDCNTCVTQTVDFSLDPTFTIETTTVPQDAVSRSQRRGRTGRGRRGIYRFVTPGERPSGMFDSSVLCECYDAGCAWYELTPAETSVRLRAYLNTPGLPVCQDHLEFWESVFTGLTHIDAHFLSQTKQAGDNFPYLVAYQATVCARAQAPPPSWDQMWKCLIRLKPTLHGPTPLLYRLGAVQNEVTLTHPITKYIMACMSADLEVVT
Outline: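 FRET readout over 30 minutes at room temperature, with IC50 fitted to initial rates from replicate curves. Enzyme was full-length NS34a; substrate a peptide from the NS4AB cleavage site labelled with QXL520 and 5-FAMsp; buffer 50 mM Tris pH8 containing 20 mM DTT, 1% CHAPS, 10% glycerol and 5% DMSO.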

[2] = system: HCV replicon GT1b RNA in Huh-7 cells; assay: Quantitative RT-PCR of HCV replicon RNA levels; type: cell-based, hepatitis C virus (HCV)
Method: In order to directly determine HCV replicon RNA levels in HCV replicon bearing Huh-7 cells the cells were seeded at 100,000 cellswell, in 6 well tissue culture plates, and allowed to attach overnight before compound addition at a final DMSO concentration of 0.1%. At 72 hours post compound addition RNA was extracted from DMSO-only treated and compound-treated cells using a Qiagen RNeasy kit (Qiagen) according to the manufacturer's instructions. All samples were then normalized for total RNA concentration. […] Briefly, sample RNA (2 ng) was combined with the NS5A primers listed above at a final concentration of 1 μM and an equal volume of 2× Quantitect SYBR Green RT-PCR Master Mix. […] Amplification of HPRT RNA for each sample was determined in separate reactions. The amount of input RNA from the untreated control sample was varied in order to generate a standard curve by which the relative levels of replicon RNA from each treated sample could be expressed as fold changes relative to the untreated control sample. […] Values were calculated from the average of three independent experiments, where log10 [sequence] levels at day 3, 7, 10, and 14 post compound treatment were subtracted from log10 [sequence] […]

[3] = system: HCV subgenomic replicon in Huh-7 cells; assay: Replicon assay, EC50 luciferase readout; type: cell-based, hepatitis C virus (HCV); details: Hepatitis C virus
Outline: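 Huh-7 cells carrying a subgenomic HCV replicon (NS3-NS5b, firefly luciferase-neo fusion) were treated with compound for 72 h at 37°C, 5% CO2. EC50 derived from Bright-Glo luciferase signal as a proxy for HCV RNA; cell viability measured in parallel by Alamar blue.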

`CC[C@@H](N[C@@H](C)CC(N)=O)c1ccc(Cl)c(Oc2ccccc2)c1F` (single isomer, unassigned) [Example 88] was tested, and the IC50 [1] was 100 nM, the “decline in HCV replicon RNA over time” value ([2]; 10x EC50, day 3, 7, 10 and 14, compound alone) was “comparable over time with Danoprevir and VX-222” and the “decline in HCV replicon RNA, combination” value ([2]; 10x EC50, in combination with either Danoprevir or VX-222) was “largest declines”. The EC50 ([3]; Huh-7, 72 h, Huh-7 replicon cells, 72 h, single value, or second value of a pair x:y, read-out: Activity EC50 (μM) (EC50 luciferase readout)) was 0.4 µM and the EC50 ([3]; Huh-7, replicon assay, set in line with previous observations, read-out: pre-determined EC50 set for the combination experiments) was 0.3 µM.
